This is an account of results in ChEMBL document CHEMBL1147000, “Synthesis and evaluation of succinoyl-caprolactam gamma-secretase inhibitors” (Bioorg Med Chem Lett, 2006).

What is called IC50 is the concentration at which inhibition is half-maximal. A lower IC50 goes with inhibition by little substance.

A value given as a limit tells only on which side of the number the result lay.

This assay concerns HEK293. As to the kind of experiment: Inhibition of beta-amyloid peptide production in HEK293 cell line. Format: functional, cell-based. The note with it: Homo sapiens.
`CCC[C@H](C(=O)OC)[C@@H](CC(C)C)C(=O)N[C@H]1CCCCN(Cc2cccc(Oc3ccccc3)c2)C1=O` registered an IC50 of 6000 nM.
The result for `CCC[C@H](C(=O)NO)[C@@H](CC(C)C)C(=O)N[C@H]1CCCCN(Cc2cccc(I)c2)C1=O` reads 3000 nM; that for `CCC[C@H](C(=O)N(C)OC)[C@@H](CC(C)C)C(=O)N[C@H]1CCCCN(Cc2cccc(Oc3ccccc3)c2)C1=O`, 5000 nM; that for `CCC[C@H](C(=O)NN)[C@@H](CC(C)C)C(=O)N[C@H]1CCCCN(Cc2cccc(Oc3ccccc3)c2)C1=O`, 1600 nM.
Next, `CCC[C@H](C(N)=O)[C@@H](CC(C)C)C(=O)N[C@H]1CCCCN(Cc2cncc(-c3ccccn3)c2)C1=O`: 8800 nM; `CCC[C@@H](CC(=O)NNC(=O)[C@@H](CCC)[C@@H](CC(C)C)C(=O)N[C@H]1CCCCN(Cc2cccc(Oc3ccccc3)c2)C1=O)C(=O)NO`: greater than 10000 nM; `CCC[C@H](C(=O)NNC(=O)[C@@H](CCC)[C@@H](CC(C)C)C(=O)N[C@H]1CCCCN(Cc2cccc(Oc3ccccc3)c2)C1=O)[C@@H](CC(C)C)C(N)=O`: 226 nM.
The result for `CCC[C@H](C(=O)NOC)[C@@H](CC(C)C)C(=O)N[C@H]1CCCCN(Cc2cccc(Oc3ccccc3)c2)C1=O` reads 5000 nM; that for `CCC[C@H](C(=O)NC)[C@@H](CC(C)C)C(=O)N[C@H]1CCCCN(Cc2cccc(Oc3ccccc3)c2)C1=O`, 5000 nM.
The compound `CCC[C@H](C(=O)NNC(=O)[C@@H](CC(N)=O)CC(C)C)[C@@H](CC(C)C)C(=O)N[C@H]1CCCCN(Cc2cccc(Oc3ccccc3)c2)C1=O` registered an IC50 greater than 10000 nM.
Next, `CCC[C@H](C(=O)NNC(=O)[C@H](CC(C)C)[C@@H]1CCNC1=O)[C@@H](CC(C)C)C(=O)N[C@H]1CCCCN(Cc2cccc(Oc3ccccc3)c2)C1=O`: greater than 10000 nM; `CCC[C@H](C(=O)O)[C@@H](CC(C)C)C(=O)N[C@H]1CCCCN(Cc2cccc(Oc3ccccc3)c2)C1=O`: greater than 3000 nM.
With `CCC[C@H](C(N)=O)[C@@H](CC(C)C)C(=O)N[C@H]1CCCCN(Cc2cncc(-c3ccc(F)c(Cl)c3)c2)C1=O`, 4 nM corresponded to half-maximal inhibition (IC50).
The result for `CCC[C@H](C(N)=O)[C@@H](CC(C)C)C(=O)N[C@H]1CCCCN(Cc2cncc(-c3ccc(OC)cc3)c2)C1=O` reads 32 nM.
Next, `CCC[C@H](C(N)=O)[C@@H](CC(C)C)C(=O)N[C@H]1CCCCN(Cc2cncc(-c3ccc(C(F)(F)F)cc3)c2)C1=O`: 17 nM.
Next, `CCC[C@H](C(N)=O)[C@@H](CC(C)C)C(=O)N[C@H]1CCCCN(Cc2cncc(-c3cccnc3)c2)C1=O`: 2200 nM.
Take `CCCC(C(=O)NO)C(CC(C)C)C(=O)N[C@H]1CCCCN(Cc2cccc(-c3cccc(OC)c3)c2)C1=O` (single isomer, unassigned): the IC50 was determined as 600 nM.
The result for `CCCC(C(=O)NO)C(CC(C)C)C(=O)N[C@H]1CCCCN(Cc2cccc(-c3ccc(C(F)(F)F)cc3)c2)C1=O` (single isomer, unassigned) reads 230 nM; that for `CCCC(C(=O)NO)C(CC(C)C)C(=O)N[C@H]1CCCCN(Cc2cccc(-c3ccc(F)c(Cl)c3)c2)C1=O` (single isomer, unassigned), 100 nM.
The compound `CCCC(C(=O)NO)C(CC(C)C)C(=O)N[C@H]1CCCCN(Cc2cccc(-c3ccc(F)cc3)c2)C1=O` (single isomer, unassigned) yielded an IC50 of 470 nM.
Next, `CCCC(C(=O)NO)C(CC(C)C)C(=O)N[C@H]1CCCCN(Cc2cccc(-c3cccc(C)c3)c2)C1=O` (single isomer, unassigned): 510 nM; `CCCC(C(=O)NO)C(CC(C)C)C(=O)N[C@H]1CCCCN(Cc2cccc(-c3ccc(Cl)cc3Cl)c2)C1=O` (single isomer, unassigned): 350 nM; `CCCC(C(=O)NO)C(CC(C)C)C(=O)N[C@H]1CCCCN(Cc2cccc(-c3ccc(C)cc3)c2)C1=O` (single isomer, unassigned): 260 nM.
As to `CCCC(C(=O)NO)C(CC(C)C)C(=O)N[C@H]1CCCCN(Cc2cccc(-c3ccc(OC)cc3)c2)C1=O` (single isomer, unassigned), the IC50 is 470 nM.
